In patent US9365494B2, “Process for synthesis of amino-methyl tetralin derivatives” (Roche Palo Alto LLC, priority 2008, dated 2016):

Tests used:
[1] = target: T1, recombinant human 5-HT6 receptor (Homo sapiens, UniProt P50406); assay: Radioligand binding studies, 5-HT6 ligand affinity by competing for binding of [3H]LSD; details: [3H]LSD competition; membranes of HEK293 cells stably expressing the receptor; pH 7.4, 37° C., 75 min; duplicate determinations; read-out: pKi for 5-HT6 (converted)
T1 construct: expressed in transfected cells; membranes)
T1 sequence (P50406 whole entry): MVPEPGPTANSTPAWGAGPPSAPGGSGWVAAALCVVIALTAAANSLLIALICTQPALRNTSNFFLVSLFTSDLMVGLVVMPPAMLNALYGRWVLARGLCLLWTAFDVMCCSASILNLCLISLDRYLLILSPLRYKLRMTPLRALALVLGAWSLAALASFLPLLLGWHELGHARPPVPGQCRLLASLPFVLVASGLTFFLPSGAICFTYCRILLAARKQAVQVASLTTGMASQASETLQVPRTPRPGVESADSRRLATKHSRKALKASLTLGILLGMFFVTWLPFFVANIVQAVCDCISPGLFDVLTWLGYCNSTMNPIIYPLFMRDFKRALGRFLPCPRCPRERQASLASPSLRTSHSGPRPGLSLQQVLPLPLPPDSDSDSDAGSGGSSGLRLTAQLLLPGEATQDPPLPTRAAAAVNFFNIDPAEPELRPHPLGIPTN
Method: The binding activity of compounds of this invention in vitro was determined as follows. Duplicate determinations of 5-HT6 ligand affinity were made by competing for binding of [^3H]LSD in cell membranes derived from HEK293 cells stably expressing recombinant human 5-HT6 receptor. Duplicate determinations of 5-HT2A ligand affinity were made by competing for binding of [^3H]Ketanserin (3-(2-(4-(4-fluorobenzoyl)piperidinol)ethyl)-2,4(1H,3H)-quinazolinedione) in cell membranes derived from CHO-K1 cells stably expressing recombinant human 5-HT2A receptor. Membranes were prepared from HEK 293 cell lines by the method described by Monsma et al., Molecular Pharmacology, Vol. 43 pp. 320-327 (1993), and from CHO-K^1 cell lines as described by Bonhaus et al., Br J. Pharmacol. June; 115(4):622-8 (1995).
For estimation of affinity at the 5-HT6 receptor, all determinations were made in assay buffer containing 50 mM Tris-HCl, 10 mM MgSO4, 0.5 mM EDTA, 1 mM ascorbic acid, pH 7.4 at 37° C., in a 250 microliter reaction volume. For estimation of affinity at the 5-HT2A receptor all determinations were made in assay buffer containing 50 mM Tris-HCl, 5 mM ascorbic acid, 4 mM CaCl2, pH 7.4 at 32° C., in a 250 microliter reaction volume.
Assay tubes containing [^3H] LSD or [^3H]Ketanserin (5 nM), competing ligand, and membrane were incubated in a shaking water bath for 75 min. at 37° C. (for 5-HT6) or 60 min. at 32° C. (for 5-HT2A), filtered onto Packard GF-B plates (pre-soaked with 0.3% PEI) using a Packard 96 well cell harvester and washed 3 times in ice cold 50 mM Tris-HCl. Bound [^3H] LSD or [^3H]Ketanserin were determined as radioactive counts per minute using Packard TopCount.
Displacement of [^3H]LSD or [^3H]Ketanserin from the binding sites was quantified by fitting concentration-binding data to a 4-parameter logistic equation:
[formula] where Hill is the Hill slope, [ligand] is the concentration of competing radioligand and IC50 is the concentration of radioligand producing half-maximal specific binding of radioligand. […]

Compound | melting point | Ki [1]
NC(=O)[C@@H]1CCCc2cc(Sc3cccc(F)c3)ccc21 [Example 6, (R)-6-(3-Fluoro-phenylsulfanyl)-1,2,3,4-tetrahydro-naphthalene-1-carboxylic acid amide] | 131.9 to 132.6 °C | 
CC(=O)NC[C@@H]1CCCc2cc(S(=O)(=O)c3ccccc3)cc(F)c21 [N-((R)-6-Benzenesulfonyl-8-fluoro-1,2,3,4-tetrahydro-naphthalen-1-ylmethyl)-acetamide] | 152.5 to 153.8 °C | 0.178 nM
NC(=O)NC[C@@H]1CCCc2cc(S(=O)(=O)c3cccc(F)c3)ccc21 [[(R)-6-(3-Fluoro-phenylsulfonyl)-1,2,3,4-tetrahydro-naphthalen-1-ylmethyl]-urea] |  | 0.1 nM
NC(=O)NC[C@@H]1CCCc2cc(S(=O)(=O)c3cccc(F)c3)cc(F)c21 [[(R)-8-Fluoro-6-(3-fluoro-benzenesulfonyl)-1,2,3,4-tetrahydro-naphthalen-1-ylmethyl]-urea] | 193.5 to 194.4 °C | 0.158 nM
